Tests used:
Assay type in all cases: in vivo, human
[1] = tested on: subjects with fibromyalgia; test: Patient Global Impression of Change (PGI-C)
Excerpt: As used herein, the “PGI-C” is Patient Global Impression of Change. The PGI-C is a 7-point Likert scale that allows subjects to rate the change in the disease state from study initiation to specific time points during the study or at the end of the study. It provides the subject's impression of overall change.
The PGI-C data were collected and analyzed at visits Week 2, Week 4, Week 6, and Follow-up (Week 7). […] The actual values and changes from treatment periods at Week 4 and Week 6 were summarized using descriptive statistics. A frequency distribution was created for each analysis visit based on the collected categorical values. The analysis categorical values stated above were summarized by frequency distributions and p-values using McNemar's test.

[2] = tested on: subjects with fibromyalgia; test: Safety evaluation in the fibromyalgia study; conditions: 20 mg then 200 mg PO QD, 2 weeks each
Excerpt: Adverse events (AEs), vital signs, electrocardiograms, physical examinations, Columbia Suicide Rating Scales, and clinical laboratory samples were collected throughout the study.
• Adverse events • Vital sign measurements • Clinical laboratory test results • Electrocardiogram results • Physical examination findings • Columbia-Suicide Severity Rating Scale (C-SSRS)

[3] = tested on: subjects with fibromyalgia; test: Quantitative Sensory Testing, all outcomes
Excerpt: Other efficacy assessments, as used herein, include “Multi-Modal Automated Sensory Testing” (MAST) Pressure Pain Sensitivity, “Cuff Algometry,” and “Visual Stimulation Task.”
The multi-modal automated sensory testing (MAST) system was used to measure localized pressure sensitivity at an asymptomatic, neutral body site, the thumbnail. The MAST system is a nonsignificant-risk investigational device that applies a computer-controlled mechanical stimulation at precisely controlled intensity levels and durations. The validity in the measurement of centrally-mediated pain sensitivity has been discussed extensively. The MAST system delivered an ascending series of computer-controlled, 5-second pressures at 20-second intervals (with 20% jitter) to the subject's thumbnail bed, beginning at 0.25 to 0.5 kg/cm^2 and increasing in steps of 0.25 to 0.50 kg/cm^2. Pain intensity was rated after each pressure on a 0 to 100 NRS. Testing was terminated when the first of 3 possible stop conditions were met: 1) subject reached her personal pain tolerance and requested to stop the test, 2) subject reported a pain intensity rating of >80, or 3) the maximum pressure of 10 kg/cm^2 was delivered. A regression model was used fit the stimulus-response data obtained from this procedure and interpolate Pain50, defined as the pressure intensity that evokes a moderate level of suprathreshold pressure pain (i.e., 50/100). Additional derived variables included: 1) Pressure pain threshold, defined as the first pressure in a series of at least 2 consecutive pressures that elicited a NRS pain rating >0; 2) slope of the stimulus-response function as a measure of the rate of pain increase; and 3) pressure pain tolerance, defined as the last pressure recorded in the stimulus response profile. […]
Localized pressure pain sensitivity was also measured bilaterally at 3 additional body regions: trapezius, wrist, and patella. […] Sensitivity was measured using a digital algometer with a 1-cm^2 flat rubber probe. […]
Large volume, deep tissue pressure sensitivity was assessed by cuff algometry. […]

[4] = tested on: subjects with fibromyalgia; test: Multidimensional Inventory of Subject Cognitive Impairment (MISCI); conditions: not statistically significant
Excerpt: As used herein, “MISCI” is Multidimensional Inventory of Subject Cognitive Impairment. The MISCI is a 10-item assessment that measures cognitive function. The instrument examines 5 cognitive domains: mental clarity, memory, language, executive functioning, and attention/concentration. The first 6 items are positively worded and reflect perceived cognitive abilities and the last 4 items are negatively worded and reflect perceived cognitive difficulties. The same scoring metric is used for both response scales. However, the scores on items 7-10 must be reverse-coded prior to summing the responses to generate the total score due to the negative wording of these items. Here is a list of the categorical responses with the numeric values that make up the total score: • Positively Worded Items 1-6:“Not at All”=1; “A Little Bit”=2; “Somewhat”=3; “Quite a Bit”=4; “Very Much”=5 • Negatively Worded Items 7-10: “Never”=5; “Rarely”=4; “Sometimes”=3; “Often”=2; “Very Often”=1
The total score was calculated by the sum of all the 10 items ranging from 10 to 50, with higher scores indicating better perceived cognitive functioning (i.e. lower impairment). […] The MISCI assessment was collected and analyzed at visits Screening, Day 1, Week 2, Week 4, Week 6, and Follow-up (Week 7). […] Additionally, the treatment group comparisons were analyzed using the paired ttest and nonparametric Wilcoxon signed-rank test.

## CC(C)C(=O)N1CCC[C@]12CN([C@H](C(N)=O)[C@@H](C)O)C2=O [NYX-2925, (2S, 3R)-3-hydroxy-2-((R)-5-isobutyryl-1-oxo-2,5-diazaspiro[3.4]octan-2-yl)butanamide]
[1]; post hoc, improved including minimally improved, 20 mg and 200 mg versus placebo
  Patient Global Impression of Change: a larger proportion of subjects had a reduction of severity
[1]; traditional definition of improved (very much improved, much improved)
  Patient Global Impression of Change: little, if any, change in severity
[2]
  discontinuations due to treatment-emergent adverse events (TEAE): no discontinuations
  safety and tolerability: safe and well tolerated
  serious adverse events: No serious adverse events
[3]; NYX-2925 20 mg
  effects on QST relative to placebo: no significant or marginal effects
[3]; NYX-2925 20 mg versus NYX-2925 200 mg
  differences on QST between doses: no significant or marginal differences
[3]; NYX-2925 200 mg
  effects on QST outcomes relative to placebo, other than right trapezius threshold: no additional significant or marginal effects
[4]; Week 2 (placebo) to Week 4 (NYX-2925 20 mg)
  MISCI Total score, mean change: 1.1
[4]; Week 2 (placebo) to Week 6 (NYX-2925 200 mg)
  MISCI Total score, mean change: 0.9

Source: patent US20210308101A1, “METHODS OF TREATING FIBROMYALGIA” (Aptinyx Inc., priority 2019, published 2021)
